The record followed here is ChEMBL document CHEMBL1201862, “PubChem BioAssay data set” (2004).

The structures appear in SMILES notation. The source made the active and inactive calls.

Assay [1] concerns the target T1, Eukaryotic translation initiation factor 4H (Homo sapiens, UniProt Q15056). As to the kind of experiment: inhibitors of translation initiation factor eIF4H – SAR follow-up (AID 435011). Format: functional.
The target in assay [2] is T1, Eukaryotic translation initiation factor 4H. As to the kind of experiment: eIF4H binding inhibition – biochemical, uHTS, fluorescence polarization, translation initiation inhibitor project, primary screen (AID 2012). (In general: In fluorescence polarisation assays a small probe gives low polarisation when free and higher when bound to something large.)
In assay [3] the target is T2, Polyadenylate-binding protein 1 (Homo sapiens, UniProt P11940). As to the kind of experiment: blockers of PABP interaction with poly(A) – biochemical, fluorescence polarization, […] (AID 2014).
In assay [4] the target is T2, Polyadenylate-binding protein 1. As to the kind of experiment: PABP inhibition in translation initiation, SAR follow-up (AID 435018). The class given is functional.
The next assay has as its system Trypanosoma cruzi. As to the kind of experiment: anti-trypanosomal activity in host cells – cell-based, plate reader, dry powder, set 3, dose response (AID 493197). Format: functional.
Assay [5] is described as follows: NIH/3T3 cell viability loss – mouse embryonic fibroblasts, dry powder, set 2, cytotoxicity control, dose response (AID 493247). To be noted: Fibroblast. The class given is functional, cell-based.
A further assay concerns J774.A1. As to the kind of experiment: Confirmation of image-based Screening Assay for Inhibitors of Phagocytosis. [Related pubchem assays (depositor defined):AID1029, AID1643]. Format: functional, cell-based. The note with it: Mus musculus.
Assay [6] concerns the target NACHT, LRR and PYD domains-containing protein 3 (Homo sapiens, UniProt Q96P20). As to the kind of experiment: NALP3 inhibitors in yeast, dose response, luminescent (AID 488799). Format: functional.
Another assay concerns the target Integrin alpha-4 (Homo sapiens, UniProt P13612). As to the kind of experiment: allosteric modulators of alpha4 integrin VLA-4 – cell-based, LIBS antibody binding, flow cytometry, SAR follow-up (AID 488791). The class given is functional. In general terms: A flow cytometer gives signals particle by particle.
The target in assay [7] is T3, Intestinal-type alkaline phosphatase (Homo sapiens, UniProt P09923). As to the kind of experiment: activation of human intestinal alkaline phosphatase – biochemical, luminescent, uHTS hits, set 2, dose response (AID 488817).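 Note: potency of activators that raise enzyme activity.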 Format: functional.
In assay [8] the target is T3, Intestinal-type alkaline phosphatase. As to the kind of experiment: human intestinal alkaline phosphatase activators, dose response, biochemical, luminescence, uHTS hits (AID 463120). The class given is functional.
The target in assay [9] is T4, Alkaline phosphatase, tissue-nonspecific isozyme (Homo sapiens, UniProt P05186).
T4 sequence (P05186 whole entry): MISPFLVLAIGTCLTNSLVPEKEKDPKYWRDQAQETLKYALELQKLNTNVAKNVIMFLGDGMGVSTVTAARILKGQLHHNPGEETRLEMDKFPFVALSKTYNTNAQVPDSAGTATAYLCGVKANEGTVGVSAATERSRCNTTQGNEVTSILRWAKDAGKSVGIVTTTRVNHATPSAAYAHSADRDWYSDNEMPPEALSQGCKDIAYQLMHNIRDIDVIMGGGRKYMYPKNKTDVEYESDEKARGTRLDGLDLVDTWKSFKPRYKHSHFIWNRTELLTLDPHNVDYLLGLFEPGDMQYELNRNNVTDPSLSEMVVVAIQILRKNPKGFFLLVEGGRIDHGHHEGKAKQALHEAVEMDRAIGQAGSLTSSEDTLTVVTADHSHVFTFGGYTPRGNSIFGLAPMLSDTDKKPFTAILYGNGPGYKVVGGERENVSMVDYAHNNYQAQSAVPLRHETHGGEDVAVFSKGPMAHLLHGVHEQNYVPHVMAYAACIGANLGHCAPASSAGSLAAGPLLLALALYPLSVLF
As to the kind of experiment: activation of tissue-nonspecific alkaline phosphatase – biochemical, TNAP isozyme, human IAP uHTS hits, selectivity assay for human IAP activator project, dose response (AID 488886).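 Note: potency of compounds raising TNAP activity as a selectivity check on IAP activators.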 The class given is functional.

The target in assay [10] is T5, Intestinal-type alkaline phosphatase (Mus musculus, UniProt P24822). As to the kind of experiment: PubChem AID 488875. Format: functional.
Assay [11] deals with T6, Kappa-type opioid receptor (Homo sapiens, UniProt P41145). As to the kind of experiment: SAR analysis of small molecule antagonists of the kappa opioid receptor via a luminescent beta-arrestin assay - Set 6. [Related pubchem assays (depositor defined):AID1777, AID1778, AID1785, AID1786, AID1966, AID2133, AID2136, AID2285]. The class given is functional.
The target of assay [12] is Delta-type opioid receptor (Homo sapiens, UniProt P41143). As to the kind of experiment: SAR Analysis of Antagonists of the DOR Receptor using an Image-Based Assay - Set 3. [Related pubchem assays (depositor defined):AID1777, AID1785]. The class given is functional.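 Note: U2OS cells expressing DOR1 and beta-arrestin GFP stimulated with 100 nM SNC80; imaging of GFP-tagged beta-arrestin moving into spots after receptor activation.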
Assay [13] concerns the target T6, Kappa-type opioid receptor. As to the kind of experiment: SAR analysis of Antagonists of the Kappa Opioid Receptor (KOR) using an Image-Based Assay - Set 4. [Related pubchem assays (depositor defined):AID1777, AID1785]. The class given is functional.
Assay [14] has as its target T6, Kappa-type opioid receptor. As to the kind of experiment: SAR analysis of small molecule antagonists of the kappa opioid receptor via a luminescent beta-arrestin assay - Set 3. [Related pubchem assays (depositor defined):AID1777, AID1778, AID1785, AID1786, AID1966, AID2133, AID2136, AID2285, AID2495]. Format: functional.
A further assay deals with Mu-type opioid receptor (Homo sapiens, UniProt P35372). As to the kind of experiment: SAR Analysis of Antagonists of the MOR Receptor using an Image-Based Assay - Set 3. [Related pubchem assays (depositor defined):AID1777, AID1785, AID1786, AID1966, AID2133, AID2136, AID2284, AID2285, AID2420]. The class given is functional.
Assay [15] deals with Voltage-dependent T-type calcium channel subunit alpha-1H (Homo sapiens, UniProt O95180). As to the kind of experiment: human CACNA1H calcium influx blockade – cell-based, synthetic library set 1, calcium flux (AID 493022). The class given is functional. (A change in cytosolic calcium serves as a functional read-out for many receptors and channels.)
Assay [16] addresses Melanin-concentrating hormone receptor 1 (Homo sapiens, UniProt Q99705). As to the kind of experiment: Late-stage fluorescence-based counterscreen for antagonists of the G-protein coupled receptor 7 (GPR7): cell-based dose response assay to identify antagonists of the melanin-concentrating hormone receptor 1 (MCHR1). [Related pubchem assays (depositor defined):AID1861, AID1880, AID1952, AID2148, AID2251, AID2257, AID485339]. Format: functional.

The target of assay [17] is Neuropeptides B/W receptor type 1 (Homo sapiens, UniProt P48145). As to the kind of experiment: human NPBW1 receptor blockade, IC50 – cell-based, fluorescence, dose response, late-stage follow-up (AID 463251). The class given is functional.
The target in assay [18] is T5, Intestinal-type alkaline phosphatase. As to the kind of experiment: PubChem AID 488874. Format: functional.
The target in assay [19] is Sphingosine 1-phosphate receptor 4 (Homo sapiens, UniProt O95977). As to the kind of experiment: potency of S1P4 activators – cell-based, fluorescence, synthesized compounds, late-stage follow-up (AID 463107). The class given is functional.
Assay [20] addresses E3 ubiquitin-protein ligase Mdm2/Protein Mdm4 (Homo sapiens, UniProt O15151+Q00987). As to the kind of experiment: disruption of Mdm2/MdmX protein binding – luminescence detection, dose response (AID 504593). Format: functional.
A short description of assay [21]: viability of uninfected HEp-2 cells – cell-based, HTS, cytotoxicity control for RSV inhibitor project, dose response (AID 2410). The class given is functional. The note with it: human respiratory syncytial virus.
In assay [22] the target is T7, Microphthalmia-associated transcription factor (Homo sapiens, UniProt O75030).
T7 sequence (O75030 whole entry): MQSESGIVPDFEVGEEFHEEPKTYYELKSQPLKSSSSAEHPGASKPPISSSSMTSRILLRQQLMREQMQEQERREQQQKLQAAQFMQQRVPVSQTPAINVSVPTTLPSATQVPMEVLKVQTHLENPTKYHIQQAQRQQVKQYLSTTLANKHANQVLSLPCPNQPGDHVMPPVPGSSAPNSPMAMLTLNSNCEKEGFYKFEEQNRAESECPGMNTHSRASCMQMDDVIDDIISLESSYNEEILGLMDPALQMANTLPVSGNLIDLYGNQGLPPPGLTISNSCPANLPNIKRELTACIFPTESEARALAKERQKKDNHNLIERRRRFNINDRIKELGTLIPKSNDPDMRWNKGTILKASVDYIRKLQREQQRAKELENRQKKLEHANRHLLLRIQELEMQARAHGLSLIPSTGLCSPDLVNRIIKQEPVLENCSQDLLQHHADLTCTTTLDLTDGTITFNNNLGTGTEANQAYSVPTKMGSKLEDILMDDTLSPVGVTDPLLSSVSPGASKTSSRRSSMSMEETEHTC
As to the kind of experiment: reducers of TRPM1 reporter luminescence, concentration series – cell-based, SK-MEL-5, cherry-picked, set 4, MITF inhibitor project, dose response (AID 493102). The class given is functional.

Assay [23] has as its target T7, Microphthalmia-associated transcription factor. As to the kind of experiment: reducers of TRPM1 reporter luminescence, concentration series – cell-based, SK-MEL-5, cherry-picked, set 3, MITF inhibitor project, dose response (AID 493073).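 Note: SK-MEL-5 melanoma cells with luciferase driven by the MITF target TRPM1 promoter.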 The class given is functional.
Assay [24] has the same target. As to the kind of experiment: MITF Measured in Cell-Based System Using Plate Reader - 2084-01_Inhibitor_DoseNoFile_CherryPick_Activity_Set2. [Related pubchem assays (depositor defined):AID488944]. Format: functional.

T3 sequence (P09923 whole entry): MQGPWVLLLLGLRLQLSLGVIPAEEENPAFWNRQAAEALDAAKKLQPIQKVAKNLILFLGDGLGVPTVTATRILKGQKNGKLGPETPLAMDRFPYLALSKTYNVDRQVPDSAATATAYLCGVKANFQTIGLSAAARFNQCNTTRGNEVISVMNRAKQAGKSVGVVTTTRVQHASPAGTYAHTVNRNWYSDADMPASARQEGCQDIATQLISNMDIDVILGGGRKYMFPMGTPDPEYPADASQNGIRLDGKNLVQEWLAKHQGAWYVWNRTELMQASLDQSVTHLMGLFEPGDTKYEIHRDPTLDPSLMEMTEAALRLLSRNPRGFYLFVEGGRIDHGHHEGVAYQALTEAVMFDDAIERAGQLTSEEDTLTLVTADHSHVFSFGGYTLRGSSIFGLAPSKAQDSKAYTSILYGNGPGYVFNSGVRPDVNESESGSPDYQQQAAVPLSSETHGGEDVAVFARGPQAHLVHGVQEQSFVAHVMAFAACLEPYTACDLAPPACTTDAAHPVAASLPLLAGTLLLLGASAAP
T6 sequence (P41145 whole entry): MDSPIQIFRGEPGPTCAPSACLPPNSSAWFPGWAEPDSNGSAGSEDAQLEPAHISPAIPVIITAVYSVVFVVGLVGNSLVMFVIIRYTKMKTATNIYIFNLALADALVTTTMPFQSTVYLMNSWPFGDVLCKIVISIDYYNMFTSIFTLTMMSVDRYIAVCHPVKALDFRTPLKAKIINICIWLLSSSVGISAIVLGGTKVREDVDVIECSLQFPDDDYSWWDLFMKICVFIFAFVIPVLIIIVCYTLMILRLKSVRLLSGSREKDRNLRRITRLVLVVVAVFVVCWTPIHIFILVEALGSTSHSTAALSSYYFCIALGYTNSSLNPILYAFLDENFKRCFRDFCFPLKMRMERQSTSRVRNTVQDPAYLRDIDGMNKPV
T5 sequence (P24822 whole entry): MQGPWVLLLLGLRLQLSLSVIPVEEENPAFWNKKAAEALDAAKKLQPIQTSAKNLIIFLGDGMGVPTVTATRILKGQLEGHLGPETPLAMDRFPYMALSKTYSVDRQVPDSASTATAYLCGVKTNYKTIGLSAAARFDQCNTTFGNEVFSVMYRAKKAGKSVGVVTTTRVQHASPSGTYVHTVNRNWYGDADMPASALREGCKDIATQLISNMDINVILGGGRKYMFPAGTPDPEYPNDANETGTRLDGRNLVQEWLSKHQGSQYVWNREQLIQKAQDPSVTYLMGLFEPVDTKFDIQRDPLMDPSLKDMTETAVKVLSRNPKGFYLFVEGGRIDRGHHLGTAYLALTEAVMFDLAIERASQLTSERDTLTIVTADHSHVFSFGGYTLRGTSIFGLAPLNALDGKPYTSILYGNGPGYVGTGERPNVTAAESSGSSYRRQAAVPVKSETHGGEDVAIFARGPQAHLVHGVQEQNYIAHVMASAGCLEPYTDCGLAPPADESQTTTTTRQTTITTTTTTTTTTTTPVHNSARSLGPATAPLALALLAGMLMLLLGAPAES
T2 sequence (P11940 whole entry): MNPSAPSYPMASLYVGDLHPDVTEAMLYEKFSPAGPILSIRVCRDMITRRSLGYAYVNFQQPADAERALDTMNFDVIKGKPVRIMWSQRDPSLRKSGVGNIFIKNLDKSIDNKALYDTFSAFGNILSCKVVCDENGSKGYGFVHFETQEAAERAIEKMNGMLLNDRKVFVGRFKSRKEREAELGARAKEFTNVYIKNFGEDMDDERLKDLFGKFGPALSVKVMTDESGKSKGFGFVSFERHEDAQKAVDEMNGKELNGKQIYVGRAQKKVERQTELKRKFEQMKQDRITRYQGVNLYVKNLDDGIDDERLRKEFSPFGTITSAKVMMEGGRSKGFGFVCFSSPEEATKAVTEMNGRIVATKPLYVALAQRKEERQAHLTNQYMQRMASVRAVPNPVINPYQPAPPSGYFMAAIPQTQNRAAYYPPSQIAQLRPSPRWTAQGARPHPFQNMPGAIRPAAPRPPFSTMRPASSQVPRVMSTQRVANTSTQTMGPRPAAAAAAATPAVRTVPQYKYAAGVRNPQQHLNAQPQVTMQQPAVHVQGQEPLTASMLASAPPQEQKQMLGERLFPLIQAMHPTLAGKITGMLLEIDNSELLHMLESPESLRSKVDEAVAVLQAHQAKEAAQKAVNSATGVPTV
Integrin alpha-4, sequence (P13612 whole entry): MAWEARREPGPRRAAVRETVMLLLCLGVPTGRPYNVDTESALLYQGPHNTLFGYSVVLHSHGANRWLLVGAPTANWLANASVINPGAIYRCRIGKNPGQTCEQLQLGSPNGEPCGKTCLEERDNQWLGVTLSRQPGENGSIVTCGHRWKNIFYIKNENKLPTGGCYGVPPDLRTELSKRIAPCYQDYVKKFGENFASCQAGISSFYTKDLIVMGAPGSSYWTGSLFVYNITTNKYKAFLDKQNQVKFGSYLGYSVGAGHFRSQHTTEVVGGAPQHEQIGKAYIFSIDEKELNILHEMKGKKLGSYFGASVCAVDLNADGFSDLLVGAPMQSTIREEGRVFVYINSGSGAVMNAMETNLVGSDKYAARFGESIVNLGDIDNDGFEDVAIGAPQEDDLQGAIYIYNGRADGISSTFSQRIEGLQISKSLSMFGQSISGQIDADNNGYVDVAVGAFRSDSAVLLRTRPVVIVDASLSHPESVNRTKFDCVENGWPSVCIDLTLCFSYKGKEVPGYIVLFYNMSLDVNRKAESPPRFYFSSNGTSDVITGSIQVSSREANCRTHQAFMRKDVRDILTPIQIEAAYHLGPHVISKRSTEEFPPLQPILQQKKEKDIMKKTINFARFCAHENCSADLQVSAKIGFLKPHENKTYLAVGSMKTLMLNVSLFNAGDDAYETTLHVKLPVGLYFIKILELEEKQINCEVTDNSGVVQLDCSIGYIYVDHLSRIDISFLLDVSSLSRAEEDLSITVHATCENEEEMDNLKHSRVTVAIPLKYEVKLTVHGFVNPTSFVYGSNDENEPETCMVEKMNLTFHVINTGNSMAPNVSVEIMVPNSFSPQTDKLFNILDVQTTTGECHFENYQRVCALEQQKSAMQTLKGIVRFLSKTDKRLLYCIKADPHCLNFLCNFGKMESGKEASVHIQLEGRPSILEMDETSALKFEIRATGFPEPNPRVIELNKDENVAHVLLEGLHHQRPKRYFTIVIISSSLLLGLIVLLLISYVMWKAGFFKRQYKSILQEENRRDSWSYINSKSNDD
Neuropeptides B/W receptor type 1, sequence (P48145 whole entry): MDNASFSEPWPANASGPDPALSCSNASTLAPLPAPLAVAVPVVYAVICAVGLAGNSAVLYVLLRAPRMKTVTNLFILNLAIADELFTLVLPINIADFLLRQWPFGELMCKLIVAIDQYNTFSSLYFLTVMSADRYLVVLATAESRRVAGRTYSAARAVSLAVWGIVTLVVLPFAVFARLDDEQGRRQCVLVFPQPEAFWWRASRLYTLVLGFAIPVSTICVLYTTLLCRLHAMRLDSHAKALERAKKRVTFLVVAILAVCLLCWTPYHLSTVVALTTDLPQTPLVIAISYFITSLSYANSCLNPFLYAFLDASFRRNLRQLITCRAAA
Mu-type opioid receptor, sequence (P35372 whole entry): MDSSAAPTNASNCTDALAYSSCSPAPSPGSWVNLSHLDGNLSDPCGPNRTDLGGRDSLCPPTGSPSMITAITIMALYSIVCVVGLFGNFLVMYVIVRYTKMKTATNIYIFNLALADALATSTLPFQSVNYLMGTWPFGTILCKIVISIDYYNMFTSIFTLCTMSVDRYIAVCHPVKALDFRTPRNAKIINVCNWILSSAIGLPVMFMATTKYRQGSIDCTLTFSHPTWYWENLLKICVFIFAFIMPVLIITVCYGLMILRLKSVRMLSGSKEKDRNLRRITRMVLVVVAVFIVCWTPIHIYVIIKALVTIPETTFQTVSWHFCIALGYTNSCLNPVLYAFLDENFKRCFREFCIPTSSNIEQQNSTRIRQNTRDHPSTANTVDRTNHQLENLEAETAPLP
Sphingosine 1-phosphate receptor 4, sequence (O95977 whole entry): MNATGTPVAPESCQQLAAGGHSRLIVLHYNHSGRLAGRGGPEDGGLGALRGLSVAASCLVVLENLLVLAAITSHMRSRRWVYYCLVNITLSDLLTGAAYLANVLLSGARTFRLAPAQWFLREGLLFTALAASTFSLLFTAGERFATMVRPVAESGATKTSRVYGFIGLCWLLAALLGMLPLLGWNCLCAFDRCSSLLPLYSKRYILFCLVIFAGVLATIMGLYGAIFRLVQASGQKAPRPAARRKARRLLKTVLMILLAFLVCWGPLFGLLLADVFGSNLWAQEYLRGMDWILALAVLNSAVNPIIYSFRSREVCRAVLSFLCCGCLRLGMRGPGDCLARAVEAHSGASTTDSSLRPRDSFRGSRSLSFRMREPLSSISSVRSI
Melanin-concentrating hormone receptor 1, sequence (Q99705 whole entry): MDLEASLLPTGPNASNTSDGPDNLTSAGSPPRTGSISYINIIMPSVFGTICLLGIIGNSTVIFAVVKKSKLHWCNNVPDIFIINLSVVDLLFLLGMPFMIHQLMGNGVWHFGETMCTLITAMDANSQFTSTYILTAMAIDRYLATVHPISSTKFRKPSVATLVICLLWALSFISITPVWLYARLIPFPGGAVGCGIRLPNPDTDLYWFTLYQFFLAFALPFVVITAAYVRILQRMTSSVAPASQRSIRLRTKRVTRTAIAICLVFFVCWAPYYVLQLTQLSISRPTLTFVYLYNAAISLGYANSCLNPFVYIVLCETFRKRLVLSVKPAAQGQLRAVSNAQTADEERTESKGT

The term IC50 denotes the point on the concentration scale where inhibition reaches its midpoint. On to `COc1cccc(CNC(=O)CSc2ccc(-c3ccco3)nn2)c1`, for which the IC50 was > 100 µM (inactive) in [1], 34.9 µM (active) in assay [2], > 100 µM (inactive) in [3] and > 100 µM (inactive) in assay [4].
In general, AC50 refers to the concentration at which the activity in the assay is half-maximal. Take `COc1ccc(CCN(C)C(=O)C2CCCN(Cc3ccccc3)C2)cc1OC` (stereo unspecified): the figures for the AC50 (with Trypanosoma cruzi; in [5]) were 1.4 µM (active) and 47.4 µM (active), respectively.
As to `Cc1ccc(Nc2nc(-c3c(C)nc4ccccn34)cs2)cc1`, the IC50 in the assay on J774.A1 was < 0.05 µM (inactive).
For the molecule `Cc1csc2nc(O)c(C(=O)NCCC3=CCCCC3)c(=O)n12`, the half-inhibitory concentration (IC50) in assay [6] was 4.07 µM (active).
Usually EC50 stands for the midpoint of the concentration-response curve. Take `FC(F)Oc1ccc(C2=Nn3c(nnc3-c3ccccc3Cl)SC2)cc1OCC1CC1`: the EC50 on Integrin alpha-4 is 3.89 µM (active).
With `CC(C)Oc1ccc(C(=O)Nc2nnc[nH]2)cc1`, the EC50 is 33 µM (active) in assay [7], 11.4 µM (active) in [8], 22.9 µM (active) in assay [9] and > 100 µM (inactive) in assay [10].
Consider `COc1ccc(N2CCN(CCCNC(=O)Cn3c(=O)c4cccn4c4c(C)ccnc43)CC2)c(OC)c1`, for which the IC50 is 0.225 µM (active) in [11]; > 32 µM (inactive) in assay [12]; 0.00406 µM (active) in assay [13]; 0.154 µM (active) in assay [14]; 30.9 µM (inactive) at Mu-type opioid receptor.
On to `CC(Oc1ccccc1)C(=O)Nc1nnc(-c2ccc3c(c2)OCO3)o1` (stereo unspecified), for which the EC50 in assay [15] is 10 µM (active).
For `COc1ccc(Oc2cnn(-c3ccc(C)cc3)c(=O)c2Cl)cc1`, the IC50 in [16] was 12.6 µM (inactive); in [17], 7 µM (active).
Take `O=C(NNC(=S)NC(=O)c1ccccc1)c1cccnc1`: the EC50 is 16.4 µM (active) in assay [7], 12.1 µM (active) in assay [8] and 16.4 µM (active) in assay [9]. Also, the 50% inhibitory concentration (IC50) in assay [18] was 74.2 µM (active).
As for `Cc1ccc(OCCOc2ccc(Oc3ccccc3)cc2)c([N+](=O)[O-])n1`, the EC50 in [19] is > 50 µM (inactive).
A word on the CC50: it is the concentration giving 50% cytotoxicity. On to `Cc1cccn2c(=O)c3cc(C(=O)NCCc4ccccc4)c(=N)n(Cc4ccco4)c3nc12`, for which, in [20], the IC50 is 3.68 µM (active). Besides, the half-maximal cytotoxic concentration (CC50) in [21] was 15.5 µM (active).
Consider `O=C(COC(=O)C1=COCCO1)Nc1c(F)cccc1F`, for which the AC50 in assay [22], in assay [23] and in assay [24] was > 350 µM (inactive) throughout.
